Data published in US11999715B2, “ASK1 inhibiting agents” (BIOGEN MA INC., priority 2018, dated 2024).

What was measured:
[1] = biological target: T1, ASK1/MAP3K5 (Homo sapiens, UniProt Q99683); experiment: ASK1/MAP3K5 kinase assay by Reaction Biology Corp. (headed ASK1 TR-FRET Assay); assay type: biochemical; conditions: 20 μM myelin basic protein, 10 μM ATP, class symbols
T1 sequence (Q99683 1-1374): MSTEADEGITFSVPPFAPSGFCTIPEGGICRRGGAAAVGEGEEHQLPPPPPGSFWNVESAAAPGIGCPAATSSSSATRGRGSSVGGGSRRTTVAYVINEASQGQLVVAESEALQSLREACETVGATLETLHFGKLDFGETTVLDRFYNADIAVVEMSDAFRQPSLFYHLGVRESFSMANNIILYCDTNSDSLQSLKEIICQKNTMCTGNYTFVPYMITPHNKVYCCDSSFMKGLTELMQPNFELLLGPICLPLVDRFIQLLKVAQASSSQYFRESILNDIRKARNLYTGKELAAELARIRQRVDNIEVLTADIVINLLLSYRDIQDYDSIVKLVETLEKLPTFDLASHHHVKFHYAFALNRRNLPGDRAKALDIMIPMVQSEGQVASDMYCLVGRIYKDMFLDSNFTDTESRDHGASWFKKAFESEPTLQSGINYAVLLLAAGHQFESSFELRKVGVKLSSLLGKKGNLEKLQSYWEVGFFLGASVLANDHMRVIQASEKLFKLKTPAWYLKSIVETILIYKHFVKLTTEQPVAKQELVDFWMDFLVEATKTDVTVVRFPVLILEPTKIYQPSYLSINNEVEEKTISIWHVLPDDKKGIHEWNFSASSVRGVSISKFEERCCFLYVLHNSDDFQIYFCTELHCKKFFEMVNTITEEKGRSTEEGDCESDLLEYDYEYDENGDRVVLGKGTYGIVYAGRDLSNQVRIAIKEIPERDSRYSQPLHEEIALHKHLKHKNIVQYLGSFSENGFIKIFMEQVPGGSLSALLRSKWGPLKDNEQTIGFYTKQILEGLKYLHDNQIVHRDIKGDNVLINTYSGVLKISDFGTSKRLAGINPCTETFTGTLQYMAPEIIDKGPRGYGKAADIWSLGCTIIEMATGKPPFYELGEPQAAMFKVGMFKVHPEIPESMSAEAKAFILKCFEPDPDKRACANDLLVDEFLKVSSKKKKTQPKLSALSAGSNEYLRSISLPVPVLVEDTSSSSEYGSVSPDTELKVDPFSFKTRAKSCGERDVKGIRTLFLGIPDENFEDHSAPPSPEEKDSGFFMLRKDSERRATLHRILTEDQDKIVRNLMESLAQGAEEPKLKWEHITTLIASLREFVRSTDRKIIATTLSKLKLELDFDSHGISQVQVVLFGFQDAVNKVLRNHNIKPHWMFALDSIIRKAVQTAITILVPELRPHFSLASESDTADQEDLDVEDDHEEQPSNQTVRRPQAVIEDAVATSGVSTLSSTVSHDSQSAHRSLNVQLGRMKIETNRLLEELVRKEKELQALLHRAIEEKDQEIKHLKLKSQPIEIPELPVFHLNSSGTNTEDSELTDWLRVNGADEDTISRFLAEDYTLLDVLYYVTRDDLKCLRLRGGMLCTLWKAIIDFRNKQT
Protocol: Example 111: Brief Description of ASK1 TR-FRET Assay The protein kinase inhibitory activity of the compounds described herein were tested using the ASK1/MAP3K5 assay by Reaction Biology Corp. (Malvern, PA). The assay procedure follows (and is also available on the Reaction Biology Corp. website). Base Reaction Buffer: 20 mM Hepes (pH 7.5), 10 mM MgCl2, 1 mM EGTA, 0.02% Brij35, 0.02 mg/mL BSA, 0.1 mM Na3VO4, 2 mM DTT, 1% DMSO; Substrate: 20 μM of myelin basic protein (MBP) and 10 μM ATP; Protein kinase: ASK1/MAP3K5. Reaction Procedure: • 1. Prepare indicated substrate in freshly prepared Base Reaction Buffer. • 2. Deliver any required cofactors to the substrate solution. • 3. Deliver indicated kinase into the substrate solution and gently mix. • 4. Deliver compounds in DMSO into the kinase reaction mixture by Acoustic; technology (Echo550; nanoliter range), incubate for 20 minutes at room temperature. • 5. Deliver ^33P-ATP (specific activity 10 μCi/μL) into the reaction mixture to initiate the reaction. • 6. Incubate kinase reaction for 2 hours at room temperature. • 7. Reactions are spotted onto P81 ion exchange paper. • 8. Detect kinase activity by filter-binding method.

[2] = biological target: T2, ASK1 T838 auto phosphorylation (Homo sapiens, UniProt Q99683); experiment: ASK1 (AUTO PHOS T838) assay, MSD format, in HEK-293T cells transfected with ASK1-V5; assay type: cell-based; conditions: ASK1 T838 auto phosphorylation in HEK-293T cells, 1 hr compound incubation; class symbols
T2 sequence (Q99683 1-1374): T1 sequence (Q99683 1-1374)
Protocol: Example 112: Brief Description of ASK1(AUTO PHOS T838) Assay ASK1 T838 auto phosphorylation was measured in HEK-293T cells using MSD assay format. HEK 293T cells were seeded in 15 cm plates at a density of 18 million cells and 20 mL DMEM with 10% FBS, Pen/Strep media. The plates were incubated at 37° C. overnight. Media on plates was changed to OPTI-MEM, serum free media and cells were transfected with 9 μg of ASK1-V5 tagged full length plasmid using Lipofectamine 2000 (Invitrogen) and the plates were incubated at 37° C. overnight. Cells were trypsinized, counted on Nexcellometer and plated into 96 well tissue culture plates with 100,000 cells/well and 200 μL media. Cells were incubated for 4 hr at 37° C. then ASK1 compounds were added using a HP 300e. Compounds were tested at 20 μM with 3 fold, 10 point dilution points then incubated for 1 hr at 37° C. A lysis buffer (Cell Signaling) was prepared with protease and phosphatase inhibitor and maintained at 4° C. until use. Media from cells was discarded and 120 μL of cold lysis buffer was added to the cells, the plate was shaken 4° C. for 1 hr. Lysate was mixed using Apricot liquid handler; aspirating up and down 16 times at high speed using 50 μL volume. […] Plates were then incubated on a plate shaker overnight at 4° C. Plates were washed 3× with MSD wash buffer and 50 μL of rabbit anti-pASK1 T838 antibody was added to the wells and incubated for 2 hr at room temperature on a plate shaker. Plates were then washed and 50 μL of goat anti-rabbit sulfa-tag (1:500 dilution) was added to wells, and incubated for 1 hr at room temperature on a plate shaker. […] Plates were immediately read on a MSD Instrument Reader where chemoluminescence signal was measured. Data was analyzed using Graph Pad or Genedata, the data was normalized and plotted, % activity versus log of compound concentration. The IC50 values were obtained from a 4 parameter fit. The compounds described herein were tested for in the above cell-based assay.

Work on COc1nn(C)cc1C(=O)Nc1cccc(-c2nncn2C(C)CO)n1 (racemic) [Example 35, rac-N-(6-(4-(1-Hydroxypropan-2-yl)-4H-1,2,4-triazol-3-yl)pyridin-2-yl)-3-methoxy-1-methyl-1H-pyrazole-4-carboxamide] yielded an IC50 [1] of at most 0.1 µM and an IC50 [2] of 1 to 10 µM.

Compound COc1nn(C)cc1C(=O)Nc1cccc(-c2nncn2[C@@H](C)C(F)F)n1 (single isomer, unassigned) [Example 27] has an IC50 [1] of at most 0.1 µM and an IC50 [2] of at most 1 µM.

With COc1nn(C)cc1C(=O)Nc1cccc(-c2nncn2[C@H](C)C(F)F)n1 (single isomer, unassigned) [Example 28] the IC50 [1] was at most 0.1 µM and the IC50 [2] was at most 1 µM.

With COc1nn(C)cc1C(=O)Nc1cccc(-c2nncn2[C@H]2CCC2(F)F)n1 (single isomer, unassigned) [Example 31] the IC50 [1] was at most 0.1 µM and the IC50 [2] was at most 1 µM.

COc1nn(C)cc1C(=O)Nc1cccc(-c2nncn2[C@@H]2CCC2(F)F)n1 (single isomer, unassigned) [Example 32] showed an IC50 [1] of 0.1 to 1 µM and an IC50 [2] of at most 1 µM.

For COC[C@H](C)n1cnnc1-c1cccc(NC(=O)c2cn(C)nc2OC)n1 (single isomer, unassigned) [Example 33], the IC50 [1] was at most 0.1 µM and the IC50 [2] was at most 1 µM.

With COC[C@@H](C)n1cnnc1-c1cccc(NC(=O)c2cn(C)nc2OC)n1 (single isomer, unassigned) [Example 34] the IC50 [1] was 0.1 to 1 µM and the IC50 [2] was at most 1 µM.

In the case of COc1nn(C)cc1C(=O)Nc1cccc(-c2nncn2[C@H](C)CO)n1 (single isomer, unassigned) [Example 36], the IC50 [1] is reported as at most 0.1 µM and the IC50 [2] is reported as at most 1 µM.

With COc1nn(C)cc1C(=O)Nc1cccc(-c2nncn2[C@@H](C)CO)n1 (single isomer, unassigned) [Example 37] the IC50 [1] was at most 0.1 µM and the IC50 [2] was 1 to 10 µM.

Compound COc1nn(C)cc1C(=O)Nc1cccc(-c2nncn2[C@H]2CCN(C(=O)OC(C)(C)C)C2)n1 (single isomer, unassigned) [Example 40] has an IC50 [1] of 0.1 to 1 µM and an IC50 [2] of 1 to 10 µM.

In the case of COc1nn(C)cc1C(=O)Nc1cccc(-c2nncn2[C@@H]2CCOC2)n1 (single isomer, unassigned) [Example 109], the IC50 [1] is reported as at most 0.1 µM and the IC50 [2] is reported as at most 1 µM.

COc1nn(C)cc1C(=O)Nc1cccc(-c2nncn2[C@H]2CCOC2)n1 (single isomer, unassigned) [Example 110] gave an IC50 [1] of at most 0.1 µM and an IC50 [2] of at most 1 µM.

CCOc1nn(C)cc1C(=O)Nc1cccc(-c2nncn2C(C)C)n1 [Example 3, 3-Ethoxy-N-(6-(4-isopropyl-4H-1,2,4-triazol-3-yl)pyridin-2-yl)-1-methyl-1H-pyrazole-4-carboxamide] was tested, and the IC50 [1] was at most 0.1 µM and the IC50 [2] was at most 1 µM.

COCc1nn(C)cc1C(=O)Nc1cccc(-c2nncn2C(C)C)n1 [Example 4, N-(6-(4-Isopropyl-4H-1,2,4-triazol-3-yl)pyridin-2-yl)-3-(methoxymethyl)-1-methyl-1H-pyrazole-4-carboxamide] showed an IC50 [1] of 0.1 to 1 µM and an IC50 [2] of 1 to 10 µM.

With CC(C)n1cnnc1-c1cccc(NC(=O)c2cn(C)nc2C(F)(F)F)n1 [Example 5, N-(6-(4-Isopropyl-4H-1,2,4-triazol-3-yl)pyridin-2-yl)-1-methyl-3-(trifluoromethyl)-1H-pyrazole-4-carboxamide] the IC50 [1] was 0.1 to 1 µM and the IC50 [2] was 1 to 10 µM.

Work on CC(C)n1cnnc1-c1cccc(NC(=O)c2cn(C)nc2C(F)F)n1 [Example 6, 3-(Difluoromethyl)-N-(6-(4-isopropyl-4H-1,2,4-triazol-3-yl)pyridin-2-yl)-1-methyl-1H-pyrazole-4-carboxamide] yielded an IC50 [1] of 0.1 to 1 µM and an IC50 [2] of at most 1 µM.

In the case of COc1nn(Cc2ccccc2)cc1C(=O)Nc1cccc(-c2nncn2C(C)C)n1 [Example 8, 1-Benzyl-N-(6-(4-isopropyl-4H-1,2,4-triazol-3-yl)pyridin-2-yl)-3-methoxy-1H-pyrazole-4-carboxamide], the IC50 [1] is reported as at most 0.1 µM and the IC50 [2] is reported as at most 1 µM.

CC(C)n1cnnc1-c1cccc(NC(=O)c2cnn(C(C)(C)C)c2)n1 [Example 9, 1-(tert-Butyl)-N-(6-(4-isopropyl-4H-1,2,4-triazol-3-yl)pyridin-2-yl)-1H-pyrazole-4-carboxamide] showed an IC50 [1] of 0.1 to 1 µM and an IC50 [2] of at most 1 µM.

For COc1nn(C)cc1C(=O)Nc1cccc(-c2nncn2C(C)C(F)(F)F)n1 (stereo not drawn) [Example 10, 3-Methoxy-1-methyl-N-(6-(4-(1,1,1-trifluoropropan-2-yl)-4H-1,2,4-triazol-3-yl)pyridin-2-yl)-1H-pyrazole-4-carboxamide], the IC50 [2] was at most 1 µM.

For COc1nn(C)cc1C(=O)Nc1cccc(-c2nncn2[C@H](C)C(F)(F)F)n1 [Example 11, (R)-3-Methoxy-1-methyl-N-(6-(4-(1,1,1-trifluoropropan-2-yl)-4H-1,2,4-triazol-3-yl)pyridin-2-yl)-1H-pyrazole-4-carboxamide], the IC50 [1] was 0.1 to 1 µM and the IC50 [2] was at most 1 µM.

CCCn1cc(C(=O)Nc2cccc(-c3nncn3C(C)C)n2)c(OC)n1 [Example 58, N-(6-(4-Isopropyl-4H-1,2,4-triazol-3-yl)pyridin-2-yl)-3-methoxy-1-propyl-1H-pyrazole-4-carboxamide] showed an IC50 [2] of at most 1 µM.

Compound COc1nn(-c2ccccc2)cc1C(=O)Nc1cccc(-c2nncn2C(C)C)n1 [Example 60, N-(6-(4-Isopropyl-4H-1,2,4-triazol-3-yl)pyridin-2-yl)-3-methoxy-1-phenyl-1H-pyrazole-4-carboxamide] has an IC50 [2] of at most 1 µM.

In the case of COc1nn(CC2CC2)cc1C(=O)Nc1cccc(-c2cncn2C(C)C)n1 [Example 91, 1-(Cyclopropylmethyl)-N-(6-(1-isopropyl-1H-imidazol-5-yl)pyridin-2-yl)-3-methoxy-1H-pyrazole-4-carboxamide], the IC50 [2] is reported as at most 1 µM.
